Test results from patent publication US4863951A, “Pharmacologically active amino-5,6,7,8-tetrahydronaphtho [2,3-B] furan compounds” (ADIR Et Cie, priority 1987, dated 1989).
Where a name gives a salt, the structure may show the parent alone. Read-outs that look alike come from different tables or passages of the source.

Tests used:
[1] = tested on: reserpine-induced hypothermia; experiment: Antagonism of reserpine-induced hypothermia; assay type: in vivo, Swiss CD male mice; conditions: mice, reserpine 2.5 mg.kg^-1 i.p.
Experimental: The antidepressant effects of the compounds of the invention were investigated by assessing the antagonism of reserpine-induced hypothermia and the antagonism of the ponto-geniculo-occipital waves induced by the compound Ro4-1284 in cats.
The study is carried out on Swiss CD male mice (27-28 g). After distribution into groups of 10 animals each, reserpine is injected intraperitoneally at a dose of 2.5 mg.kg^-1. Three hours later, the compounds undergoing trial are administered intraperitoneally. The rectal temperature of the animals is measured one hour and two hours after the second treatment, and compared with the initial temperature To of these same animals, measured immediately before the administration of the compounds undergoing trial.

[2] = tested on: isolation-induced aggression; experiment: Antiaggressive effects: isolation-induced aggression in mice; assay type: in vivo; conditions: isolated mice, i.p.
Source text: (§1) The antiaggressive effects of the compounds of the invention were investigated by two methods, one of them testing for an inhibition of aggressive behavior in peviously isolated mice (Yen C. Y., Stanger A. L., and Millman N, Arch. Int. Pharmacodyn. Therap. (1959), 123, p. 179-185), and the other in isolated and bulbectomized rats (Garattini S. and Sigg E. B. "Aggressive Behaviour" p. 47-55 Ed. Excerpta Medica Found., Amsterdam, 1969).
(§2) (Tables IX and X, s=significant, p<0.05).

[3] = tested on: apomorphine-induced hypothermia; experiment: Antagonism with respect to apomorphine-induced hypothermia in mice; assay type: in vivo; conditions: apomorphine 1 mg.kg^-1 s.c., after 2 hours; for change in vivo at 5 mg/kg: read-out: % antagonism of hypothermia, mice, i.p. dose 5; for % antagonism of hypothermia: hydrochloride
Experimental: Testing for an antagonism with respect to apomorphine-induced hypothermia in mice was performed according to the method described by CHERMAT R. and PONCELET M. in J. Pharmac. (1983), 14, No. 1, p. 93-97. The dose of apomorphine administered subcutaneously was 1 mg.kg^-1. Tables VII and VIII show the percentage antagonism of the hypothermia observed after 2 hours.

[4] = tested on: apomorphine-induced stereotypy; experiment: Antagonism of apomorphine-induced stereotypy in rats; assay type: in vivo; conditions: apomorphine 1.5 mg.kg^-1 i.p., 30 minutes; for % ISS (inhibition (-) or potentiation (+) of the stereotypy score): hydrochloride; for change in vivo at 5 mg/kg: read-out: % ISS (inhibition (-) or potentiation (+) of the stereotypy score), rats, i.p. dose 5 mg.kg^-1
Experimental: The inhibitory activity of the compounds of the invention with respect to apomorphine- or amphetamine-induced stereotypy in rats was assessed using the scale of scoring of stereotyped movements described by Quinton R. M. and Halliwell G. in Nature (1963), 200, p. 178-179.
Apomorphine or amphetamine was administered to the animals intraperitoneally at a dose of 1.5 mg.kg^-1. The percentage inhibition (-) or potentiation (+) of the stereotypy score (% ISS) shown in Tables IV and V for apomorphine corresponds to a measurement time of 30 minutes. In contrast, the percentage inhibition of the stereotypy score shown in Table VI for amphetamine corresponds to a measurement time of 3 hours. […]

[5] = tested on: apomorphine-induced rearing-up; experiment: Antagonism of apomorphine-induced rearing-up behavior in mice; assay type: in vivo; conditions: apomorphine 0.75 mg.kg^-1 s.c.; for change in vivo at 20 mg/kg / change in vivo at 40 mg/kg / change in vivo at 2.5 mg/kg / change in vivo at 5 mg/kg: Mus musculus, ip; for change in vivo at 2.5 mg/kg: read-out: % inhibition of rearing-up, mice, i.p. dose 2.5 mg.kg^-1; for change in vivo at 5 mg/kg: read-out: % inhibition of rearing-up, mice, i.p. dose 5 mg.kg^-1; for % inhibition of rearing-up: hydrochloride
Experimental: Studied in the test of antagonism of apomorphine-induced rearing-up following the subcutaneous administration of a dose of 0.75 mg.kg^-1 of this substance in mice, the compounds of general formula I act in a clear-cut manner at doses greater than or equal to 2.5 mg.kg^-1 (i.p.). The same results are observed when the compounds of general formula I are administered orally at a dose of 20 mg.kg^-1. The activity of the compounds was assessed according to the method described by Protais P, Costentin J and Schwartz J. C. in Psychopharmacology (1976), 50, p. 1-6.
(s=significant difference, p<0.05).

[6] = tested on: aggression of isolated, bulbectomized rats; experiment: Antiaggressive effects: aggression of isolated, bulbectomized rats; assay type: in vivo; conditions: i.p.
Source text: as §1, §2

[7] = tested on: interoceptive stimulus of apomorphine; experiment: Drug discrimination in rats (generalization with apomorphine); assay type: in vivo; conditions: 2.5 mg.kg^-1 i.p., 30 minutes before test, hydrochloride
Experimental: Rats were trained to discriminate between the effect of the interoceptive stimulus of apomorphine (0.2 mg.kg^-1 i.p.) and that of physiological saline, according to a principle described by Colpaert F. in "Drug discrimination application in C.N.S. Pharmacology" Ed. Elsevier Biomedical 1982, Amsterdam. […]
Under the experimental conditions employed, the behavior shown by the animals coincides with that noted in the case of administration of apomorphine.

[8] = 10 mg.kg^-1 i.p., hydrochloride
[9] = 20 mg.kg^-1 i.p., hydrochloride
[10] = Mus musculus, ip, 2 h, read-out: % antagonism of hypothermia, mice, i.p. dose 10
[11] = Mus musculus, ip, 2 h, read-out: % antagonism of hypothermia, mice, i.p. dose 20
[12] = 2.5 mg.kg^-1 i.p., hydrochloride
[13] = Rattus norvegicus, ip, 0.5 h, read-out: % ISS (inhibition (-) or potentiation (+) of the stereotypy score), rats, i.p. dose 10 mg.kg^-1

## OCCCCCCNC1CCc2cc3c(cc2C1)OCC3 (racemic) [Example 32, dl-7-[N-(6-Hydroxyhexyl)amino]-2,3,5,6,7,8-hexahydronaphtho[2,3-b]furan hydrochloride]
[1]; 10 mg.kg^-1 i.p.
  % inhibition of hypothermia: -1%
[1]; 20 mg.kg^-1 i.p.
  % inhibition of hypothermia: -29%
[2]; 5 mg.kg^-1
  % of pairs of mice showing no sign of fighting: 10%
[2]; 20 mg.kg^-1
  % of pairs of mice showing no sign of fighting: 30%
[3]; Mus musculus, ip, mice, i.p. dose 10, read-out: % antagonism of hypothermia
  change in vivo at 10 mg/kg: -10%
[3]; Mus musculus, ip, mice, i.p. dose 20, read-out: % antagonism of hypothermia
  change in vivo at 20 mg/kg: -13%
[4]; Rattus norvegicus, ip, 0.5 h, rats, i.p. dose 10 mg.kg^-1, read-out: % ISS (inhibition (-) or potentiation (+) of the stereotypy score)
  change in vivo at 10 mg/kg: -3%
[4]; Rattus norvegicus, ip, 0.5 h, rats, i.p. dose 20 mg.kg^-1, read-out: % ISS (inhibition (-) or potentiation (+) of the stereotypy score)
  change in vivo at 20 mg/kg: -5%
[5]; mice, i.p. dose 20 mg.kg^-1, read-out: % inhibition of rearing-up
  change in vivo at 20 mg/kg: -32%
[5]; mice, i.p. dose 40 mg.kg^-1, read-out: % inhibition of rearing-up
  change in vivo at 40 mg/kg: -40%

## CN(C)C1CCc2cc3c(cc2C1)OCC3 (stereo not drawn) [Example 40, d-7-(N,N-Dimethylamino)-2,3,5,6,7,8-hexahydronaphtho[2,3,-b]furan hydrochloride]
[6]; 10 mg.kg^-1, hydrochloride
  % of rats rendered non-aggressive: 42%
[1]; [8]
  % inhibition of hypothermia: +14%
[1]; [9]
  % inhibition of hypothermia: +14%
[2]; 5 mg.kg^-1, hydrochloride
  % of pairs of mice showing no sign of fighting: 22%
[2]; 10 mg.kg^-1, hydrochloride
  % of pairs of mice showing no sign of fighting: 50%
[3]; [10]
  change in vivo at 10 mg/kg: -44%
[3]; [11]
  change in vivo at 20 mg/kg: -73%
[4]; rats, i.p. dose 10 mg.kg^-1
  % ISS (inhibition (-) or potentiation (+) of the stereotypy score): -61%
[4]; rats, i.p. dose 20 mg.kg^-1
  % ISS (inhibition (-) or potentiation (+) of the stereotypy score): -67%
[5]
  change in vivo at 2.5 mg/kg: -75%
  change in vivo at 5 mg/kg: -100%

## CNC1CCc2cc3c(cc2C1)OCC3 (stereo not drawn) [Example 39, l-7-(N-Methylamino)-2,3,5,6,7,8-hexahydronaphtho[2,3-b]furan hydrochloride]
[6]; 5 mg.kg^-1, hydrochloride
  % of rats rendered non-aggressive: 58%
[1]; [12]
  % inhibition of hypothermia: +37%
[1]; 5 mg.kg^-1 i.p., hydrochloride
  % inhibition of hypothermia: +14%
[1]; [8]
  % inhibition of hypothermia: +6%
[1]; 20 mg.kg^-1 i.p.
  % inhibition of hypothermia: +15%
[2]; 2.5 mg.kg^-1
  % of pairs of mice showing no sign of fighting: 70%
[2]; 5 mg.kg^-1, hydrochloride
  % of pairs of mice showing no sign of fighting: 90%

## CNC1CCc2cc3c(cc2C1)OCC3 (stereo not drawn) [Example 38, d-7-(N-Methylamino)-2,3,5,6,7,8-hexahydronaphtho[2,3-b]furan hydrochloride]
[6]; 2.5 mg.kg^-1
  % of rats rendered non-aggressive: 37%
[6]; 5 mg.kg^-1, hydrochloride
  % of rats rendered non-aggressive: 75%
[1]; [12]
  % inhibition of hypothermia: -28%
[1]; 5 mg.kg^-1 i.p., hydrochloride
  % inhibition of hypothermia: -35%
[1]; [8]
  % inhibition of hypothermia: -21%
[2]; 5 mg.kg^-1, hydrochloride
  % of pairs of mice showing no sign of fighting: 70%
[3]; Mus musculus, ip, 2 h, read-out: % antagonism of hypothermia, mice, i.p. dose 2.5
  change in vivo at 2.5 mg/kg: -48%
[3]; Mus musculus, ip, 2 h
  change in vivo at 5 mg/kg: -91%
[3]; [10]
  change in vivo at 10 mg/kg: -112%
[3]; [11]
  change in vivo at 20 mg/kg: -119%
[4]; Rattus norvegicus, ip, 0.5 h
  change in vivo at 5 mg/kg: -60%
[4]; [13]
  change in vivo at 10 mg/kg: -54%
[5]
  change in vivo at 2.5 mg/kg: -76%
  change in vivo at 5 mg/kg: -100%

## NC1CCc2cc3c(cc2C1)OCC3 (stereo not drawn) [Example 4, l-7-Amino-2,3,5,6,7,8-hexahydronaphtho[2,3-b]furan hydrochloride]
[6]; 2.5 mg.kg^-1, hydrochloride
  % of rats rendered non-aggressive: 12%
[2]; 2.5 mg.kg^-1, hydrochloride
  % of pairs of mice showing no sign of fighting: 22%
[2]; 5 mg.kg^-1, hydrochloride
  % of pairs of mice showing no sign of fighting: 44%
[7]
  % of animals which generalize: 70%
  Number of animals showing the effect of generalization with apomorphine: 7/10
[3]; mice, i.p. dose 2.5
  % antagonism of hypothermia: -8%
[3]; mice, i.p. dose 5
  % antagonism of hypothermia: -3%
[3]; mice, i.p. dose 10
  % antagonism of hypothermia: -11%
[3]; mice, i.p. dose 20
  % antagonism of hypothermia: -19%
[5]; mice, i.p. dose 10 mg.kg^-1
  % inhibition of rearing-up: -24%
[5]; mice, i.p. dose 20 mg.kg^-1
  % inhibition of rearing-up: -86%

## CCCN(CCC)C1CCc2cc3c(cc2C1)OCC3 (racemic) [Example 5, dl-7-(N,N-Dipropylamino)-2,3,5,6,7,8-hexahydronaphtho[2,3-b]furan]
[2]; 20 mg.kg^-1
  % of pairs of mice showing no sign of fighting: 50%
[2]; 40 mg.kg^-1
  % of pairs of mice showing no sign of fighting: 89%
[3]; Mus musculus, ip, 2 h
  change in vivo at 5 mg/kg: -20%
[3]; [10]
  change in vivo at 10 mg/kg: -47%
[3]; [11]
  change in vivo at 20 mg/kg: -68%
[4]; Rattus norvegicus, ip, 0.5 h
  change in vivo at 5 mg/kg: -3%
[4]; [13]
  change in vivo at 10 mg/kg: 0%
[5]; read-out: % inhibition of rearing-up, mice, i.p. dose 20 mg.kg^-1
  change in vivo at 20 mg/kg: 27%
[5]; read-out: % inhibition of rearing-up, mice, i.p. dose 40 mg.kg^-1
  change in vivo at 40 mg/kg: -54%

## CN(C)C1CCc2cc3c(cc2C1)OCC3 (stereo not drawn) [Example 41, l-7-(N,N-Dimethylamino)-2,3,5,6,7,8-hexahydronaphtho[2,3-b]furan hydrochloride]
[6]; 10 mg.kg^-1, hydrochloride
  % of rats rendered non-aggressive: 50%
[1]; [8]
  % inhibition of hypothermia: +13%
[1]; [9]
  % inhibition of hypothermia: +29%
[2]; 5 mg.kg^-1, hydrochloride
  % of pairs of mice showing no sign of fighting: 66%
[2]; 10 mg.kg^-1, hydrochloride
  % of pairs of mice showing no sign of fighting: 90%
[4]; rats, i.p. dose 10 mg.kg^-1
  % ISS (inhibition (-) or potentiation (+) of the stereotypy score): +11%
[4]; rats, i.p. dose 20 mg.kg^-1
  % ISS (inhibition (-) or potentiation (+) of the stereotypy score): +3%
